Measured values taken from US12344584B2, “KCNQ potentiators” (Eli Lilly and Company, priority 2019, dated 2025).
Like-named read-outs stand apart in the source and are kept apart here.

Tested on: motor neurons derived from ALS patient iPSC line with pathogenic repeat expansion mutation in C9orf72
Experiment: Optopatch excitability assay in motor neurons derived from ALS patient iPSC line (C9orf72 repeat expansion)
Assay type: cell-based
Settings: Homo sapiens, read-out: EC50, inhibition of excitability (action potential frequency)
Text: Optopatch Excitability Assay for Example 1 in Motor Neurons Derived From ALS Patient iPSC Lines
Altered excitability of cortical neurons and lower motor neuron is an important factor in the pathophysiology of ALS (See, for example, K. Kanai, et. al., J Neurol Neurosurg Psychiatry, 83, 734-738 (2012); P. Menon, et. al., Eur Neurol., 24, 816-824 (2017)). All-optical electrophysiology (“Optopatch”) was used to evaluate excitability in cultured motor neurons derived from iPSC lines from two ALS patients with different pathogenic mutations.
Cell Culture: The two iPSC lines are derived from one patient with a pathogenic mutation in TARDBP and one patient with a pathogenic repeat expansion mutation in C9orf72, respectively. Motor neurons are generated from these lines by a 2D differentiation method adapted from the dual SMAD inhibition neuronal patterning protocol (See S. M. Chambers, et. al., Nat Biotechnol., 27, 275-280 (2009)) by inclusion of motor neuron morphogens. Differentiation is verified by visual inspection, karyotyping and staining for beta-III-tubulin and the nuclear motor neuron marker ISL1. Neurons are cultured on a monolayer of mouse glia in mTeSR (Stem Cell Technologies), supplemented with 10 ng/mL BDNF. Forty-eight hours prior to imaging, 100 nM trans-retinal was added to the medium.
Transduction with Optopatch vectors: At 15 days in vitro, cultured motor neurons are transduced with a lentiviral vector to drive the co-expression of the actuator CheRiff-mOrange2 and the voltage indicator QuasAr3-Citrine (for details see D. R. Hochbaum, et. al., Nat. Methods, 11, 825-833 (2014)). Forty-eight hours prior to imaging, 100 nM trans-retinal was added to the medium.
Solutions: Recordings are performed in Brainphys™ imaging buffer with 3 mM potassium. […]
Optopatch Recordings: Five days after transduction, Optopatch imaging is performed on a custom, ultra-widefield fluorescence microscope at RT. Motor neurons are illuminated with red laser excitation (200 W/cm^2; 635 nm) to monitor changes in QuasAr fluorescence and blue LED excitation (0-127 mW/cm^2, 470 nm) to depolarize the cell membrane with CheRiff. […] Optopatch data are recorded using a Hamamatsu ORCA-Flash 4.0 sCMOS camera with a 1 kHz frame rate. […]
Data Analysis: Image segmentation analysis is performed using temporal Principle Component Analysis and spatial-temporal Independent Component Analysis to isolate individual neurons. A spike-finding algorithm is used to find action potentials, and data are analyzed for compound effects on mean firing rate, adaptation, rheobase and action potential waveform shape by comparing to vehicle controls (for detail, see C. A. Werley, et. al., Curr. Protoc. Pharmacol., 78, 11.20.1-11.20.24. (2017)). […]

- EC50 (Diff 1, blue LED 5.1 mW/cm^2, mean): 170 nM
- EC50 (Diff 2, blue LED 5.1 mW/cm^2, mean): 200 nM
SMILES: CC(C)(C)[C@H](O)CNC(=O)NCc1ccnc(OCC(F)(F)F)c1 [Example 1, 1-[(2S)-2-hydroxy-3,3-dimethyl-butyl]-3-[[2-(2,2,2-trifluoroethoxy)-4-pyridyl]methyl]urea]
